# From US20040225014A1, “Method for treating ocular hypertension and glaucoma” (SUCAMPO AG, priority 2003, published 2004)
# Where two headings read alike, the source gives them in different places.
# Legend:
# Male C3H/HeN mice [1] = details: mouse, in vivo
# Excerpt: (§1) Male C3H/HeN mice of 7 weeks old (seven groups; three mice/group) were used. Following 1-week acclimation, hair on the back of mice was shaved. Two days after the shaving, applications of test compound (13,14-dihydro-15-keto-17-phenyl-18,19,20-trinor-PGF2α isopropyl ester), latanoprost(13,14-dihydro-17-phenyl-18,19,20-trinor-PGF2α isopropyl ester), and vehicle (70 w/w % EtOH) were initiated (Day 1). 0.005%, 0.01% or 0.03% of test compound, 0.005%, 0.01% or 0.03% of latanoprost, or vehicle were applied to the shaved area of the mice at a volume of 0.1 mL once daily for 30 days. The hair growth was scored according to the following criteria.
# −: No hair growth observed
# (§2) ±: Hair growth observed; less than 10% of shaving area
# (§3) +: Hair growth observed; 10-30% of shaving area
# (§4) ++: Hair growth observed; 30-50% of shaving area
# (§5) +++: Hair growth observed; more than 50% of shaving area
# eyelashes = details: marketed eye drops for ocular hypertension and glaucoma; cited from earlier work
# Male C3H/HeN mice [2] = experiment: Hair growth scoring after once daily topical application to the shaved back of mice for 30 days; details: for Scores of hair growth: 0.1 mL once daily on shaved area, individual animals
# Excerpt: as §1
# −: No hair growth observed
# as §2, §3, §4, §5
structure (smiles),measurement,setting,value
"CC(C)OC(=O)CCC/C=C\C[C@@H]1[C@@H](CC[C@@H](O)CCc2ccccc2)[C@H](O)C[C@@H]1O [Latanoprost, 13,14-dihydro-17-phenyl-18,19,20-trinor-PGF2α isopropyl ester]",Effect on the hair growth (summary in words),Male C3H/HeN mice [1],remarkable hair growth stimulation
same,Scores of hair growth,Male C3H/HeN mice [1],−
same,Eyelash hair growth (side effect of eye drops),eyelashes,induce eyelash hair growth
"CCCCCCCC(=O)CC[C@@H]1[C@@H](C/C=C\CCCC(=O)OC(C)C)[C@@H](O)C[C@H]1O [Rescula®, 13,14-dihydro-15-keto-20-ethyl-PGF2α isopropylester]",Eyelash hair growth (side effect of eye drops),eyelashes,increases length of eyelashes
"CC(C)OC(=O)CCC/C=C\C[C@@H]1[C@@H](CCC(=O)CCc2ccccc2)[C@H](O)C[C@@H]1O [Test compound, 13,14-dihydro-15-keto-17-phenyl-18,19,20-trinor-PGF2α isopropyl ester]",Scores of hair growth,"Male C3H/HeN mice [2]; 0.005%, 19 days after first application",−
same,Scores of hair growth,"Male C3H/HeN mice [2]; 0.005%, 22 days after first application",−
same,Scores of hair growth,"Male C3H/HeN mice [2]; 0.005%, 23 days after first application",−
same,Scores of hair growth,"Male C3H/HeN mice [2]; 0.005%, 24 days after first application",−
same,Scores of hair growth,"Male C3H/HeN mice [2]; 0.005%, 25 days after first application",−
same,Scores of hair growth,"Male C3H/HeN mice [2]; 0.005%, 26 days after first application",−
same,Scores of hair growth,"Male C3H/HeN mice [2]; 0.005%, 29 days after first application",−
same,Scores of hair growth,"Male C3H/HeN mice [2]; 0.005%, 30 days after first application",−
same,Scores of hair growth,"Male C3H/HeN mice [2]; 0.01%, 19 days after first application",−
same,Scores of hair growth,"Male C3H/HeN mice [2]; 0.01%, 22 days after first application",−
same,Scores of hair growth,"Male C3H/HeN mice [2]; 0.01%, 23 days after first application",−
same,Scores of hair growth,"Male C3H/HeN mice [2]; 0.01%, 24 days after first application",−
same,Scores of hair growth,"Male C3H/HeN mice [2]; 0.01%, 25 days after first application",−
same,Scores of hair growth,"Male C3H/HeN mice [2]; 0.01%, 26 days after first application",−
same,Scores of hair growth,"Male C3H/HeN mice [2]; 0.01%, 29 days after first application",−
same,Scores of hair growth,"Male C3H/HeN mice [2]; 0.01%, 30 days after first application",−
same,Scores of hair growth,"Male C3H/HeN mice [2]; 0.03%, 19 days after first application",−
same,Scores of hair growth,"Male C3H/HeN mice [2]; 0.03%, 22 days after first application",−
same,Scores of hair growth,"Male C3H/HeN mice [2]; 0.03%, 23 days after first application",−
same,Scores of hair growth,"Male C3H/HeN mice [2]; 0.03%, 24 days after first application",−
same,Scores of hair growth,"Male C3H/HeN mice [2]; 0.03%, 25 days after first application",−
same,Scores of hair growth,"Male C3H/HeN mice [2]; 0.03%, 26 days after first application",−
same,Scores of hair growth,"Male C3H/HeN mice [2]; 0.03%, 29 days after first application",−
same,Scores of hair growth,"Male C3H/HeN mice [2]; 0.03%, 30 days after first application",−
same,Effect on the hair growth (summary in words),"Male C3H/HeN mice [2]; any concentration tested (0.005%, 0.01%, 0.03%), once daily for 30 days",no effects on the hair growth
"CCNC(=O)CCC/C=C\C[C@@H]1[C@@H](/C=C/[C@@H](O)CCc2ccccc2)[C@H](O)C[C@@H]1O [bimatoprost, 17-phenyl 18,19,20-trinor PGF2α-N-ethylamide]",Eyelash hair growth (side effect of eye drops),eyelashes,induce eyelash hair growth
"CC(C)OC(=O)CCC/C=C\C[C@@H]1[C@@H](/C=C/[C@@H](O)COc2cccc(C(F)(F)F)c2)[C@H](O)C[C@@H]1O [travoprost, 16-(3-trifluoromethylphenoxy)-17,18,19,20-tetranor PGF2α isopropyl ester]",Eyelash hair growth (side effect of eye drops),eyelashes,induce eyelash hair growth
